Patent US8440645B2, “Ceramide production promoter” (Kao Corporation, priority 2008, dated 2013)
Counter-ions that a name gives are not always drawn.

How the values were obtained:
[1] = system: Normal human epidermal keratinocytes (NHEK(F)); test: Ceramide production promotion test (Test Example 3); type: cell-based; conditions: 5 mM solution added in an amount of 1%, 3 days culture
Description: Normal human epidermal keratinocytes (NHEK(F)) were seeded into an EpiLife-KG2 (KURABO INDUSTRIES LTD.) 6-well Plate and cultured until the cells became confluent. […] Culture was performed for 3 days, and the cells in each well were separately collected. Lipids were extracted from the collected cells by a Bligh and Dyer method. The extracts were dried with nitrogen, and the residues were redissolved in chloroform and methanol, to thereby prepare lipid samples. Note that the amounts of proteins were determined by the BCA method. The extracted lipids were subjected to horizontal development twice by using thin layer chromatography (TLC) and chloroform:methanol:acetic acid=190:9:1. The resultant were sprayed with a copper sulfate solution and heated on a hot plate, to thereby detect ceramide. Thereafter, the resultant values were divided by respective protein amounts to calculate amounts of ceramide.

[2] = system: Normal human epidermal keratinocytes (NHEK(F)); test: Ceramide production promotion test (Test Example 1); type: cell-based; conditions: 3 days culture, control (10% ethanol) defined as 1
Description: Normal human epidermal keratinocytes (NHEK(F)) were seeded into an EpiLife-KG2 (KURABO INDUSTRIES LTD.) 6-well Plate and cultured until the cells became confluent. Thereafter, in replacement of EpiLife-KG2 (containing no proliferation addition factor), Compound 1 (5 mM) and Compound 2 (1 mM) prepared in Production Examples or a control solution (10% ethanol) was added thereto in an amount of 1%. Culture was performed for 3 days, and the cells in each well were separately collected.
Lipids were extracted from the collected cells by Bligh and Dyer method. The extracts were dried with nitrogen, and the residues were redissolved in chloroform and methanol, to thereby prepare lipid samples. Note that the amounts of proteins were determined by a BCA method.
The extracted lipids were subjected to horizontal development twice by using thin layer chromatography (TLC) and chloroform:methanol:acetic acid=190:9:1. The resultant was sprayed with a copper sulfate solution and heated on a hot plate, to thereby detect ceramide. Thereafter, the resultant values were divided by respective protein amounts to calculate amounts of ceramide. […] The numerical values shown in the table are relative values when the amount of ceramide in the control is defined as 1.

human horny layer = test: Test on effect of improving moisture content in human horny layer (Test Example 2); type: in vivo; conditions: 1% Compound 1 solution applied to cheek twice a day, five days a week, 4 weeks; ten men; P<0.1 t-test
Description: Ten men (25 to 40-year-old: mean age 30.5)
A solution containing 1% Compound 1 and a placebo solution containing only a solvent were used as application samples. The solvent used was 95.0% ethanol:1,3-BG:purified water=20:10:70.
The samples were applied twice a day and five days a week. The amount of each sample per application was set to two drops (about 100 μl) from an eye drop bottle.
The test was performed by applying the sample containing 1% Compound 1 to one side of the cheek and the placebo solution to the other side for 4 weeks, followed by measuring moisture contents in the horny layer using a Corneometer. The measurement was performed before the application and after the 4-week application at the same regions on the cheek, and the result of the 1% Compound 1-containing sample side was compared with that of the placebo side.

[3] = control (50% ethanol) defined as 1
[4] = control (10% ethanol) defined as 1

CCCCCCCCCCCCCCCCCCOCC(O)COP(=O)([O-])[O-].[Na+].[Na+] (centres unmarked) [Compound 5, 1-Octadecylglycerol-3-phosphate disodium salt]
Amount of ceramide (relative value) [1, 3]: 2.6

CCCCCCCCCCC(CCCCCCCC)COCC(O)COP(=O)(O)O (centres unmarked) [Compound 9, 1-(2-Octyldodecyl)glycerol-3-phosphate monoarginine salt]
Amount of ceramide (relative value) [1, 4]: 4.1

CCCCOCC(COCCCCCCCCCCCCCCCC(C)C)OP(=O)([O-])[O-].[Na+].[Na+] (centres unmarked) [Compound 2, 1-isostearyl-3-butylglycerol-2-phosphate sodium salt]
Amount of ceramide (relative value) ([2]; 1 mM solution added in an amount of 1%): 1.5

CCCCCCCCCCCCOCC(O)COP(=O)([O-])[O-].[Na+].[Na+] (centres unmarked) [Compound 3, 1-Dodecylglycerol-3-phosphate disodium salt]
Amount of ceramide (relative value) [1, 4]: 3.1

CCCCCC(C)CCCCCCCCCCCOCC(O)COP(=O)([O-])[O-].[K+].[K+] (centres unmarked) [Compound 8, 1-(12-Methylheptadecyl)glycerol-3-phosphate dipotassium salt]
Amount of ceramide (relative value) [1, 4]: 10.4

monoalkyl (having an average alkyl chain length of C13) phosphate potassium salt [Comparative Compound 1, reference compound]
Amount of ceramide (relative value) [1, 3]: 0.6

CCCCCCCCCC(CCCCCCC)COCC(O)COP(=O)(O)O (centres unmarked) [Compound 6, 1-(2-Heptylundecyl)glycerol-3-phosphate monoarginine salt]
Amount of ceramide (relative value) [1, 4]: 4.0

1-Isostearylglycerol-3-phosphate monoarginine salt [Compound 7]
Amount of ceramide (relative value) [1, 4]: 18.9

1-n-tetradecyl-3-ethylglycerol-2-phosphate arginine salt [Compound 1]
Moisture content in the horny layer (Corneometer) compared with placebo-applied side (human horny layer): increase
Amount of ceramide (relative value) ([2]; 5 mM solution added in an amount of 1%): 3.3

CCCCCCCCCCCCCCOCC(O)COP(=O)(O)O (centres unmarked) [Compound 4, 1-Tetradecylglycerol-3-phosphate monoarginine salt]
Amount of ceramide (relative value) [1, 4]: 4.3
